Source: ChEMBL document CHEMBL4699440, “Comprehensive review on the anti-bacterial activity of 1,2,3-triazole hybrids” (Eur J Med Chem, 2019)
Converted amounts (≈) assume the structure as drawn. Each block holds one compound with its values, some of them ahead of it. Numbered stars: 1 amine (or outer) side, 2 acyl side, 3 side chain; on linkers, the order of the positions; unused ones are H or OH. Square brackets hold non-standard residues; d marks the D form. Peptide text beside a SMILES is read from it. * marks the point of attachment. X1 = CC(C)(C(=O)c1ccc(C(F)(F)F)cc1)C(=O)*; βPro(3R) = O=C([C@@H]1CCN([*:1])C1)[*:2]; Phe(ol) = N[C@H](CO)Cc1ccccc1; Aib = CC(C)(N)C(=O)O

Key:
[1] = tested on: Pseudomonas aeruginosa; assay: Antibacterial activity against Pseudomonas aeruginosa MTCC 424 incubated for 24 hrs by two-fold serial dilution method; assay type: functional
[2] = tested on: Escherichia coli; assay: Potency index, ratio of ciprofloxacin MIC to test compound MIC for antimicrobial activity against Escherichia coli MTCC 1652 incubated for […] by two-fold serial dilution method; assay type: functional
[3] = tested on: Pseudomonas aeruginosa; assay: Potency index, ratio of ciprofloxacin MIC to test compound MIC for antimicrobial activity against Pseudomonas aeruginosa MTCC 424 incubated for 24 hrs by two-fold serial dilution method; assay type: functional
[4] = tested on: Bacillus subtilis; assay: Antibacterial activity against Bacillus subtilis MTCC 441 incubated for 24 hrs by two-fold serial dilution method; assay type: functional
[5] = tested on: Staphylococcus aureus; assay: Potency index, ratio of ciprofloxacin MIC to test compound MIC for antimicrobial activity against Staphylococcus aureus MTCC 7443 incubated for 24 hrs by two-fold serial dilution method; assay type: functional
[6] = tested on: Bacillus subtilis; assay: Potency index, ratio of ciprofloxacin MIC to test compound MIC for antimicrobial activity against Bacillus subtilis MTCC 441 incubated for 24 hrs by two-fold serial dilution method; assay type: functional
[7] = tested on: Staphylococcus aureus; assay: Antibacterial activity against Staphylococcus aureus MTCC 7443 incubated for 24 hrs by two-fold serial dilution method; assay type: functional
[8] = tested on: Candida albicans; assay: Antifungal activity against Candida albicans MTCC 227 incubated for 2 days by microdilution method; assay type: functional; conditions: MTCC 227, 48 h, time 2 day
[9] = tested on: Aspergillus brasiliensis; assay: Antifungal activity against Aspergillus brasiliensis MTCC 1344 incubated for 7 days by microdilution method; assay type: functional; conditions: MTCC 1344, 168 h, time 7 day
[10] = tested on: Enterococcus faecalis; assay: Antibacterial activity against Enterococcus faecalis ATCC 29212 incubated for 24 hrs by microdilution method; assay type: functional
[11] = tested on: Staphylococcus epidermidis; assay: Antibacterial activity against Staphylococcus epidermidis MTCC 6880 by serial dilution method; assay type: functional
[12] = tested on: Enterococcus faecium; assay: Antibacterial activity against Enterococcus faecium ATCC 700221; assay type: functional
[13] = tested on: Staphylococcus aureus; assay: Antibacterial activity against Staphylococcus aureus 209P JC1 incubated for 20 hrs by agar dilution method; assay type: functional
[14] = tested on: Bacillus cereus; assay: Antibacterial activity against Bacillus cereus ATCC 10876 incubated for 24 hrs by microdilution method; assay type: functional
[15] = tested on: Staphylococcus epidermidis; assay: Antibacterial activity against Staphylococcus epidermidis incubated for 24 hrs by microdilution method; assay type: functional
[16] = tested on: Klebsiella aerogenes; assay: Antibacterial activity against Enterobacter aerogenes ATCC 13048; assay type: functional
[17] = tested on: Staphylococcus aureus; assay: Antibacterial activity against Staphylococcus aureus by agar dilution method; assay type: functional
[18] = tested on: Pseudomonas aeruginosa; assay: Antibacterial activity against Pseudomonas aeruginosa MTCC 741 incubated for 24 hrs by microdilution method; assay type: functional
[19] = tested on: Proteus mirabilis; assay: Antibacterial activity against Proteus mirabilis 13-1; assay type: functional
[20] = tested on: Enterococcus faecium; assay: Antibacterial activity against Enterococcus faecium 13-7; assay type: functional
[21] = tested on: Staphylococcus aureus; assay: Antibacterial activity against methicillin-sensitive Staphylococcus aureus ATCC 29213; assay type: functional
[22] = tested on: Serratia marcescens; assay: Antibacterial activity against Serratia marcescens ATCC 21074; assay type: functional
[23] = tested on: Acinetobacter calcoaceticus; assay: Antibacterial activity against Acinetobacter calcoaceticus ATCC 19606; assay type: functional
[24] = tested on: Klebsiella pneumoniae; assay: Antibacterial activity against Klebsiella pneumoniae ATCC 700603; assay type: functional
[25] = tested on: Escherichia coli; assay: Antibacterial activity against Escherichia coli RCMB 010052 by broth dilution method; assay type: functional
[26] = tested on: Bacillus subtilis; assay: Antibacterial activity against Bacillus subtilis MTCC 441 incubated for 24 hrs by microdilution method; assay type: functional
[27] = tested on: Escherichia coli; assay: Antibacterial activity against Escherichia coli NIHJ JC2 incubated for 20 hrs by agar dilution method; assay type: functional
[28] = tested on: Klebsiella pneumoniae; assay: Antibacterial activity against Klebsiella pneumoniae MTCC 618 incubated for 24 hrs by microdilution method; assay type: functional
[29] = tested on: Pseudomonas aeruginosa; assay: Antibacterial activity against Pseudomonas aeruginosa ATCC 27853; assay type: functional
[30] = tested on: Proteus vulgaris; assay: Antibacterial activity against Proteus vulgaris ATCC 29905; assay type: functional
[31] = tested on: Staphylococcus aureus; assay: Antibacterial activity against Staphylococcus aureus ATCC 25923 incubated for 24 hrs by tube dilution method; assay type: functional
[32] = tested on: Streptococcus pyogenes; assay: Antibacterial activity against Streptococcus pyogenes ATCC 35552 incubated for 24 hrs by tube dilution method; assay type: functional
[33] = tested on: Pseudomonas aeruginosa; assay: Antibacterial activity against Pseudomonas aeruginosa ATCC 12454 incubated for 24 hrs by tube dilution method; assay type: functional
[34] = tested on: Escherichia coli; assay: Antibacterial activity against Escherichia coli MTCC 1652 incubated for […] by two-fold serial dilution method; assay type: functional; conditions: time 24 hrs
[35] = tested on: Klebsiella pneumoniae; assay: Antibacterial activity against Klebsiella pneumoniae 7; assay type: functional
[36] = tested on: Staphylococcus aureus; assay: Antibacterial activity against methicillin-resistant Staphylococcus aureus ATCC 33591; assay type: functional
[37] = tested on: Staphylococcus aureus; assay: Antibacterial activity against Staphylococcus aureus ATCC 25923 incubated for 24 hrs by microdilution method; assay type: functional
[38] = tested on: Staphylococcus epidermidis; assay: Antibacterial activity against methicillin-resistant Staphylococcus epidermidis 13-3; assay type: functional
[39] = tested on: Bacillus cereus; assay: Antibacterial activity against Bacillus cereus MTCC 430 incubated for 24 hrs by macrodilution tube method; assay type: functional
[40] = tested on: Pseudomonas aeruginosa; assay: Antibacterial activity against Pseudomonas aeruginosa 12 incubated for 20 hrs by agar dilution method; assay type: functional
[41] = tested on: Citrobacter freundii; assay: Antibacterial activity against Citrobacter freundii ATCC 43864; assay type: functional
[42] = tested on: Pseudomonas aeruginosa; assay: Antibacterial activity against Pseudomonas aeruginosa MTCC 424 by serial dilution method; assay type: functional
[43] = tested on: Bacillus cereus; assay: Antibacterial activity against Bacillus cereus by agar dilution method; assay type: functional
[44] = tested on: Klebsiella pneumoniae; assay: Antibacterial activity against Klebsiella pneumonia RCMB 010058 by broth dilution method; assay type: functional
[45] = tested on: Pseudomonas aeruginosa; assay: Antibacterial activity against Pseudomonas aeruginosa RCMB 010043 by broth dilution method; assay type: functional
[46] = tested on: Escherichia coli; assay: Antibacterial activity against Escherichia coli MTCC […] by serial dilution method; assay type: functional
[47] = tested on: Staphylococcus aureus; assay: Antibacterial activity against Staphylococcus aureus RCMB 010025 by broth dilution method; assay type: functional
[48] = tested on: Morganella morganii; assay: Antibacterial activity against Morganella morganii ATCC 25830; assay type: functional
[49] = tested on: Staphylococcus epidermidis; assay: Antibacterial activity against methicillin-sensitive Staphylococcus epidermidis ATCC 12228; assay type: functional
[50] = tested on: Klebsiella pneumoniae; assay: Antibacterial activity against Klebsiella pneumoniae ATCC 15380 incubated for 24 hrs by tube dilution method; assay type: functional
[51] = tested on: Pseudomonas aeruginosa; assay: Antibacterial activity against Pseudomonas aeruginosa ATCC 27853 incubated for 24 hrs by microdilution method; assay type: functional
[52] = tested on: Staphylococcus aureus; assay: Antibacterial activity against Staphylococcus aureus MTCC 96 incubated for 24 hrs by microdilution method; assay type: functional
[53] = tested on: Proteus mirabilis; assay: Antibacterial activity against Proteus mirabilis ATCC 35659 incubated for 24 hrs by microdilution method; assay type: functional
[54] = tested on: Streptococcus pneumoniae; assay: Antibacterial activity against Streptococcus pneumoniae RCMB 010010 by broth dilution method; assay type: functional
[55] = tested on: Stenotrophomonas maltophilia; assay: Antibacterial activity against Stenotrophomonas maltophilia ATCC 13636; assay type: functional
[56] = tested on: Bacillus subtilis; assay: Antibacterial activity against Bacillus subtilis RCMB 010067 by broth dilution method; assay type: functional
[57] = tested on: Escherichia coli; assay: Antibacterial activity against Escherichia coli ATCC 25922 incubated for 24 hrs by tube dilution method; assay type: functional
[58] = tested on: Bacillus subtilis; assay: Antibacterial activity against Bacillus subtilis MTCC 441 by serial dilution method; assay type: functional
[59] = tested on: Providencia rettgeri; assay: Antibacterial activity against Providencia rettgeri ATCC 31052; assay type: functional
[60] = Cytotoxicity against human KB cells; assay type: cell-based; conditions: human, KB cells; read-out: MIC

- MIC [1]: 0.0199 µM
- MIC [4]: 0.0199 µM
- MIC [7]: 0.0199 µM (≈ 0.0125 µg/mL)
- MIC [8]: 0.0199 µM (≈ 0.0125 µg/mL)
- MIC [9]: 0.0199 µM (≈ 0.0125 µg/mL)
Compound: O=C(Cn1cc(COc2ccc(OCc3cn(CC(=O)Nc4ccc([N+](=O)[O-])cc4)nn3)cc2)nn1)Nc1ccc([N+](=O)[O-])cc1
- Ratio [2]: 2
- Ratio [3]: 2
- Ratio [5]: 2
- Ratio [6]: 2

Compound: O=C(O)c1cn(C2CC2)c2cc(N3CCNCC3)c(F)cc2c1=O [CIPROFLOXACIN]
- MIC [10]: 1 µg/mL (≈ 3.02 µM)
- MIC [11]: 4.7 µM (≈ 1.56 µg/mL)
- MIC [12]: > 128 µg/mL
- MIC [13]: 0.0063 µg/mL (≈ 0.019 µM)
- MIC [14]: 1 µg/mL (≈ 3.02 µM)
- MIC [15]: 0.39 µg/mL (≈ 1.18 µM)
- MIC [16]: ≤ 0.03 µg/mL
- MIC [17]: 2 µg/mL (≈ 6.04 µM)
- MIC [18]: 0.39 µg/mL (≈ 1.18 µM)
- MIC [19]: ≤ 0.03 µg/mL
- MIC [20]: > 128 µg/mL
- MIC [1]: 0.0377 µg/mL
- MIC [21]: 0.03 µg/mL (≈ 0.0905 µM)
- MIC [22]: 0.03 µg/mL (≈ 0.0905 µM)
- MIC [23]: 0.03 µg/mL (≈ 0.0905 µM)
- MIC [24]: 0.03 µg/mL (≈ 0.0905 µM)
- MIC [25]: ≥ 5 µg/mL
- MIC [26]: 0.39 µg/mL (≈ 1.18 µM)
- MIC [27]: 0.0063 µg/mL (≈ 0.019 µM)
- MIC [28]: 0.39 µg/mL (≈ 1.18 µM)
- MIC [29]: 0.03 µg/mL (≈ 0.0905 µM)
- MIC [30]: ≤ 0.03 µg/mL
- MIC [31]: 5.5 µg/mL (≈ 16.6 µM)
- MIC [32]: 5.5 µg/mL (≈ 16.6 µM)
- MIC [33]: 5.5 µg/mL (≈ 16.6 µM)
- MIC [34]: 37.7 µM (≈ 12.5 µg/mL)
- MIC [35]: ≤ 0.03 µg/mL
- MIC [36]: 0.03 µg/mL (≈ 0.0905 µM)
- MIC [37]: 1 µg/mL (≈ 3.02 µM)
- MIC [38]: 0.03 µg/mL (≈ 0.0905 µM)
- MIC [39]: 6.25 µg/mL (≈ 18.9 µM)
- MIC [40]: 0.0063 µg/mL (≈ 0.019 µM)
- MIC [41]: ≤ 0.03 µg/mL
- MIC [42]: 4.7 µM (≈ 1.56 µg/mL)
- MIC [43]: 2 µg/mL (≈ 6.04 µM)
- MIC [44]: ≥ 5 µg/mL
- MIC [4]: 0.0377 µg/mL
- MIC [45]: ≥ 5 µg/mL
- MIC [46]: 4.7 µM (≈ 1.56 µg/mL)
- MIC [47]: ≥ 5 µg/mL
- MIC [48]: ≤ 0.03 µg/mL
- MIC [49]: 0.03 µg/mL (≈ 0.0905 µM)
- MIC [50]: 5.5 µg/mL (≈ 16.6 µM)
- MIC [51]: 1 µg/mL (≈ 3.02 µM)
- MIC [52]: 0.39 µg/mL (≈ 1.18 µM)
- MIC [53]: 1 µg/mL (≈ 3.02 µM)
- MIC [54]: ≥ 5 µg/mL
- MIC [55]: 0.03 µg/mL (≈ 0.0905 µM)
- MIC [56]: ≥ 5 µg/mL
- MIC [57]: 5.5 µg/mL (≈ 16.6 µM)
- MIC [58]: 4.7 µM (≈ 1.56 µg/mL)
- MIC [59]: ≤ 0.03 µg/mL

Compound: CC(C)C[C@H](NC(=O)CNC(=O)C(C)(C)NC(=O)[C@@H](NC(=O)C(C)(C)NC(=O)[C@H](CCC(N)=O)NC(=O)[C@H](C)NC(=O)C(C)(C)NC(=O)[C@H](C)NC(=O)C(C)(C)NC(=O)[C@@H]1CCN(C(=O)C(C)(C)C(=O)c2ccc(C(F)(F)F)cc2)C1)C(C)C)C(=O)NC(C)(C)C(=O)N1CCC[C@H]1C(=O)N[C@H](C(=O)NC(C)(C)C(=O)NC(C)(C)C(=O)N[C@@H](CCC(N)=O)C(=O)N[C@@H](CCC(N)=O)C(=O)N[C@H](CO)Cc1ccccc1)C(C)C (X1-[βPro(3R)][Aib]A[Aib]AQ[Aib]V[Aib]GL[Aib]PV[Aib][Aib]QQ[Phe(ol)])
- MCC [60]: 2.9 µg/mL
